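Step 1: Grow cells in 96-well plates. Step 2: Expose to compound for 48 hours at 5 concentrations. Step 3: Interpolate endpoints linearly; if unreached, use highest concentration. Abbreviation: GI50, concentration required for 50% inhibition of growth. Definition used: TGI = concentration required for complete inhibition of growth.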
Experiments:
Assay in all cases: growth of human tumour cells (NCI), 48 h
IGROV1 ovarian = tested on: IGROV1 ovarian
HL-60(TB) leukemia = tested on: HL-60(TB) leukemia
HT29 colon = tested on: HT29 colon
SK-MEL-28 melanoma = tested on: SK-MEL-28 melanoma
OVCAR-5 ovarian = tested on: OVCAR-5 ovarian
BT-549 breast = tested on: BT-549 breast
HOP-62 NSCLC = tested on: HOP-62 NSCLC
LOX IMVI melanoma = tested on: LOX IMVI melanoma
SK-MEL-2 melanoma = tested on: SK-MEL-2 melanoma
CCRF-CEM leukemia = tested on: CCRF-CEM leukemia
SR leukemia = tested on: SR leukemia
CAKI-1 renal = tested on: CAKI-1 renal
K-562 leukemia = tested on: K-562 leukemia
SF-539 CNS = tested on: SF-539 CNS
KM12 colon = tested on: KM12 colon
HCT-15 colon = tested on: HCT-15 colon
RXF 393 renal = tested on: RXF 393 renal
TK-10 renal = tested on: TK-10 renal
SF-295 CNS = tested on: SF-295 CNS
A498 renal = tested on: A498 renal
SNB-75 CNS = tested on: SNB-75 CNS
786-0 renal = tested on: 786-0 renal
M14 melanoma = tested on: M14 melanoma
T-47D breast = tested on: T-47D breast
UO-31 renal = tested on: UO-31 renal
SW-620 colon = tested on: SW-620 colon
UACC-257 melanoma = tested on: UACC-257 melanoma
A549 NSCLC = tested on: A549 NSCLC
NCI-H522 lung = tested on: NCI-H522 lung
NCI-H460 lung = tested on: NCI-H460 lung
MCF7 breast = tested on: MCF7 breast
PC-3 prostate = tested on: PC-3 prostate
DU-145 prostate = tested on: DU-145 prostate
ACHN renal = tested on: ACHN renal
SN12C renal = tested on: SN12C renal
COLO 205 colon = tested on: COLO 205 colon
EKVX NSCLC = tested on: EKVX NSCLC
U251 CNS = tested on: U251 CNS
SNB-19 CNS = tested on: SNB-19 CNS
MDA-MB-231 breast = tested on: MDA-MB-231 breast
SK-OV-3 ovarian = tested on: SK-OV-3 ovarian
OVCAR-4 ovarian = tested on: OVCAR-4 ovarian
HS 578T breast = tested on: HS 578T breast
HCT-116 colon = tested on: HCT-116 colon
HOP-92 NSCLC = tested on: HOP-92 NSCLC
SK-MEL-5 melanoma = tested on: SK-MEL-5 melanoma
NCI-H23 lung = tested on: NCI-H23 lung
SF-268 CNS = tested on: SF-268 CNS
OVCAR-8 ovarian = tested on: OVCAR-8 ovarian
HCC-2998 colon = tested on: HCC-2998 colon
MALME-3M melanoma = tested on: MALME-3M melanoma
MOLT-4 leukemia = tested on: MOLT-4 leukemia
MDA-MB-435 = tested on: MDA-MB-435
NCI-H226 lung = tested on: NCI-H226 lung
OVCAR-3 ovarian = tested on: OVCAR-3 ovarian
RPMI-8226 leukemia = tested on: RPMI-8226 leukemia
NCI/ADR-RES ovarian = tested on: NCI/ADR-RES ovarian

Structure (SMILES): C=CC(=O)N1CCN(c2nc(OC[C@@H]3CCCN3C)nc3c(F)c(-c4nc(N)cc(C)c4C(F)(F)F)c(Cl)cc23)[C@@H](C)C1
- GI50 (IGROV1 ovarian): 1.7 µM
- TGI (IGROV1 ovarian): 3.54 µM
- GI50 (HL-60(TB) leukemia): 2.91 µM
- TGI (HL-60(TB) leukemia): > 100 µM
- GI50 (HT29 colon): 2.61 µM
- TGI (HT29 colon): 9.8 µM
- GI50 (SK-MEL-28 melanoma): 1.75 µM
- TGI (SK-MEL-28 melanoma): 3.21 µM
- GI50 (OVCAR-5 ovarian): 9.68 µM
- TGI (OVCAR-5 ovarian): 21.7 µM
- GI50 (BT-549 breast): 1.71 µM
- TGI (BT-549 breast): 3.32 µM
- TGI (HOP-62 NSCLC): 13.1 µM
- GI50 (LOX IMVI melanoma): 1.6 µM
- TGI (LOX IMVI melanoma): 3.02 µM
- GI50 (SK-MEL-2 melanoma): 2.05 µM
- TGI (SK-MEL-2 melanoma): 4.34 µM
- GI50 (CCRF-CEM leukemia): 3.08 µM
- TGI (CCRF-CEM leukemia): > 100 µM
- GI50 (SR leukemia): 1.77 µM
- TGI (SR leukemia): 4.54 µM
- GI50 (CAKI-1 renal): 1.51 µM
- TGI (CAKI-1 renal): 2.95 µM
- GI50 (K-562 leukemia): 2.47 µM
- TGI (K-562 leukemia): 8.92 µM
- GI50 (SF-539 CNS): 1.73 µM
- TGI (SF-539 CNS): 3.51 µM
- GI50 (KM12 colon): 2.11 µM
- TGI (KM12 colon): 4.56 µM
- GI50 (HCT-15 colon): 1.7 µM
- TGI (HCT-15 colon): 3.47 µM
- GI50 (RXF 393 renal): 1.07 µM
- TGI (RXF 393 renal): 2.5 µM
- GI50 (TK-10 renal): 2.01 µM
- TGI (TK-10 renal): 4.53 µM
- GI50 (SF-295 CNS): 4.74 µM
- TGI (SF-295 CNS): 16.9 µM
- GI50 (A498 renal): 5.34 µM
- TGI (A498 renal): 19.3 µM
- GI50 (SNB-75 CNS): 1.22 µM
- TGI (SNB-75 CNS): 2.74 µM
- GI50 (786-0 renal): 3.6 µM
- TGI (786-0 renal): 15.3 µM
- GI50 (M14 melanoma): 1.85 µM
- TGI (M14 melanoma): 3.57 µM
- GI50 (T-47D breast): 2.14 µM
- TGI (T-47D breast): 7.17 µM
- GI50 (UO-31 renal): 1.92 µM
- TGI (UO-31 renal): 5.01 µM
- GI50 (SW-620 colon): 1.95 µM
- TGI (SW-620 colon): 3.71 µM
- GI50 (UACC-257 melanoma): 1.57 µM
- TGI (UACC-257 melanoma): 3 µM
- GI50 (A549 NSCLC): 3.36 µM
- TGI (A549 NSCLC): 13.6 µM
- GI50 (NCI-H522 lung): 1.21 µM
- TGI (NCI-H522 lung): 2.75 µM
- GI50 (NCI-H460 lung): 2.29 µM
- TGI (NCI-H460 lung): 5.39 µM
- GI50 (MCF7 breast): 1.13 µM
- TGI (MCF7 breast): 2.51 µM
- GI50 (PC-3 prostate): 2.91 µM
- TGI (PC-3 prostate): 12 µM
- GI50 (DU-145 prostate): 2.65 µM
- TGI (DU-145 prostate): 7.2 µM
- GI50 (ACHN renal): 3.41 µM
- TGI (ACHN renal): 12.6 µM
- GI50 (SN12C renal): 1.6 µM
- TGI (SN12C renal): 3.62 µM
- GI50 (COLO 205 colon): 1.86 µM
- TGI (COLO 205 colon): 3.5 µM
- GI50 (EKVX NSCLC): 1.98 µM
- TGI (EKVX NSCLC): 4.8 µM
- GI50 (U251 CNS): 1.96 µM
- TGI (U251 CNS): 5.05 µM
- GI50 (SNB-19 CNS): 3.44 µM
- TGI (SNB-19 CNS): 12.8 µM
- GI50 (MDA-MB-231 breast): 1.74 µM
- TGI (MDA-MB-231 breast): 3.27 µM
- GI50 (SK-OV-3 ovarian): 2.62 µM
- TGI (SK-OV-3 ovarian): 6.42 µM
- GI50 (OVCAR-4 ovarian): 1.59 µM
- TGI (OVCAR-4 ovarian): 3 µM
- GI50 (HS 578T breast): 1.83 µM
- TGI (HS 578T breast): 4.53 µM
- GI50 (HCT-116 colon): 2.04 µM
- TGI (HCT-116 colon): 5.39 µM
- GI50 (HOP-92 NSCLC): 1.75 µM
- TGI (HOP-92 NSCLC): 3.71 µM
- GI50 (SK-MEL-5 melanoma): 1.74 µM
- TGI (SK-MEL-5 melanoma): 3.33 µM
- TGI (NCI-H23 lung): 1.34 µM
- GI50 (SF-268 CNS): 1.59 µM
- TGI (SF-268 CNS): 3.19 µM
- GI50 (OVCAR-8 ovarian): 1.64 µM
- TGI (OVCAR-8 ovarian): 3.09 µM
- GI50 (HCC-2998 colon): 1.25 µM
- TGI (HCC-2998 colon): 2.57 µM
- GI50 (MALME-3M melanoma): 1.86 µM
- TGI (MALME-3M melanoma): 3.37 µM
- GI50 (MOLT-4 leukemia): 1.91 µM
- TGI (MOLT-4 leukemia): 7.63 µM
- GI50 (MDA-MB-435): 2.09 µM
- TGI (MDA-MB-435): 4.65 µM
- GI50 (NCI-H226 lung): 1.88 µM
- TGI (NCI-H226 lung): 4.52 µM
- GI50 (OVCAR-3 ovarian): 1.66 µM
- TGI (OVCAR-3 ovarian): 3.14 µM
- GI50 (RPMI-8226 leukemia): 2.49 µM
- TGI (RPMI-8226 leukemia): 7.06 µM
- GI50 (NCI/ADR-RES ovarian): 12.8 µM
- TGI (NCI/ADR-RES ovarian): 27.8 µM
